Test results taken from patent publication US5786480A, “4-substituted pyrazoloquinoline derivatives” (Schering Corporation, priority 1996, dated 1998).
Values after ≈ are worked out from the molar mass of the structure shown.

How the values were obtained:
[1] = tested on: HSV Early Gene Expression; assay: Transient Expression Assay for Effects Against HSV Early Gene Expression (beta Galactosidase Assay, βgal); assay type: cell-based
Method: (§1) The compound toxicity assay (3H-LEU), Plaque Reduction Assay for HSV Antiviral Activity (Plaque), and Transient Expression Assay for Effects Against HSV Early Gene Expression (β Galactosidase Assay or βgal) were carried out as set forth in U.S. Pat. No. 5,175,151 which is hereby incorporated by reference.

[2] = tested on: HSV; assay: Plaque Reduction Assay for HSV Antiviral Activity (Plaque); assay type: cell-based
Method: as §1

[3] = compound toxicity assay (3H-LEU); assay type: cell-based
Method: as §1

[4] = tested on: HSV-1; details: Haines et al., U.S. Pat. No. 4,757,088; cited from earlier work
[5] = tested on: HSV-2; details: Haines et al., U.S. Pat. No. 4,757,088; cited from earlier work
[6] = tested on: HSV; details: humans; Haines et al.; cited from earlier work
[7] = tested on: herpes virus; details: mammals; Haines et al., U.S. Pat. No. 4,757,088; cited from earlier work
[8] = tested on: herpes virus; details: addition of panthothenic acid or its alcohol and salt forms, dexpanthenol and pantothenate; Haines et al.; cited from earlier work

SMILES | IC50 [1] [µg/mL] | IC50 [2] [µg/mL] | further results
COc1ccc2nc3[nH]nc(C)c3c(NCCOCCO)c2c1 [(1)] | 5 (≈ 15.8 µM) |  | 
COc1ccc2nc3[nH]nc(C)c3c(NCCO)c2c1 [(3)] | 1.3 (≈ 4.77 µM) | 2.3 (≈ 8.45 µM) | CC50 [3]: 8.2 µg/mL (≈ 30.1 µM)
COc1ccc2nc3[nH]nc(C)c3c(NCCN3CCOCC3)c2c1 [(4)] | 20 (≈ 58.6 µM) | 10 (≈ 29.3 µM) | CC50 [3]: 100 µg/mL (≈ 293 µM)
COc1ccc2nc3[nH]nc(C)c3c(NCCc3ccccn3)c2c1 [(5)] | 1 (≈ 3 µM) | 7.5 (≈ 22.5 µM) | 
CCCCNc1c2cc(OC)ccc2nc2[nH]nc(C)c12 [(17)] | < 3 |  | CC50 [3]: 3.2 µg/mL (≈ 11.3 µM)
CCCCNc1c2cc(C)ccc2nc2[nH]nc(C)c12 [(18)] | 3 (≈ 11.2 µM) |  | CC50 [3]: 21.5 µg/mL (≈ 80.1 µM)
CCCCNc1c2cc(OC)cc(C)c2nc2[nH]nc(C)c12 [(19)] | 3 (≈ 10.1 µM) |  | CC50 [3]: 21.5 µg/mL (≈ 72.1 µM)
COc1ccc2nc3[nH]nc(C)c3c(NCCCN(C)C)c2c1 [(20)] | 0.8 (≈ 2.55 µM) |  | 
COc1ccc2nc3c(cc2c1)c(C)nn3C(=O)[C@@H](N)C(C)C [(21)] | 0.2 (≈ 0.64 µM) | 20 (≈ 64 µM) | 
COc1ccc2nc3c(cc2c1)c(C)nn3C(=O)[C@H](C)N [(22)] | 0.2 (≈ 0.703 µM) | 0.2 (≈ 0.703 µM) | 
COc1ccc2nc3c(c(C)nn3C(=O)[C@@H](N)C(C)C)c(NCCN3CCOCC3)c2c1 [(23)] | 0.2 (≈ 0.454 µM) | 20 (≈ 45.4 µM) | 
CNCC(=O)n1nc(C)c2cc3cc(OC)ccc3nc21 [(24)] | 0.2 (≈ 0.703 µM) | 2 (≈ 7.03 µM) | 
COc1ccc2nc3c(cc2c1)c(C)nn3C(=O)C(C)(C)N [(25)] | 0.2 (≈ 0.67 µM) | 20 (≈ 67 µM) | 
COc1ccc2nc3[nH]nc(C)c3c(NCC(=O)O)c2c1 [(27)] | 20 (≈ 69.9 µM) |  | 
COc1ccc2nc3[nH]nc(C)c3c(NCC(=O)NCCCN3CCCC3=O)c2c1 [(28)] | 2 (≈ 4.87 µM) | 20 (≈ 48.7 µM) | 
COc1ccc2nc3[nH]nc(C)c3c(NCC(=O)NCCN3CCCCC3)c2c1 [(29)] | 6 (≈ 15.1 µM) | 20 (≈ 50.4 µM) | 
COc1ccc2nc3[nH]nc(C)c3c(NCC(=O)NCCN3CCOCC3)c2c1 [(30)] | 2 (≈ 5.02 µM) | 20 (≈ 50.2 µM) | 
CCC(C)[C@H](N)C(=O)n1nc(C)c2c(Cl)c3cc(OC)ccc3nc21 (some centres unmarked) [(31)] | 0.2 (≈ 0.554 µM) | 0.8 (≈ 2.22 µM) | 
COc1ccc2nc3c(c(C)nn3C(=O)[C@H](C)N)c(Cl)c2c1 [(32)] | 1.8 (≈ 5.65 µM) | 0.2 (≈ 0.627 µM) | 
COc1ccc2nc3c(c(C)nn3C(=O)[C@@H](C)N)c(Cl)c2c1 [(33)] | 0.5 (≈ 1.57 µM) | 0.2 (≈ 0.627 µM) | 
CCN(CC)CC(=O)Nc1c(C)cccc1C [lidocaine, 2-(diethylamino)-N-(2,6-dimethylphenyl)acetamide] |  |  | antiviral agent in cell culture against HSV-1 [4]: antiviral agent in cell culture against HSV-1; antiviral agent in cell culture against HSV-2 [5]: antiviral agent in cell culture against HSV-1 and HSV-2; effective in the treatment of HSV oral and genital lesions [6]: particularly effective; able to treat herpes virus infections [7]: able to treat herpes virus infections of mammals; enhancement of antiviral activity [8]: significantly enhances
